The record followed here is ChEMBL document CHEMBL4033748, “SAR and characterization of non-substrate isoindoline urea inhibitors of nicotinamide phosphoribosyltransferase (NAMPT)” (Bioorg Med Chem Lett, 2017).

Broadly, the IC50 is the midpoint of a concentration-inhibition curve. One may read the Ki as the equilibrium dissociation constant of an inhibitor or competing ligand from its target. The solubility is how much of the substance goes into solution per volume.

For one series, the system named is PC-3. The series is described as follows: Antiproliferative activity against human PC3 cells assessed as reduction in cell viability incubated for 5 days by Cell-titer Glo reagent based assay. In kind it is functional.
Series [1] has as its system Liver. Description: Unbound intrinsic clearance in human liver microsomes at 0.5 uM in presence of NADPH incubated for 5 to 30 mins by HPLC-MS/MS method. In kind it is ADME, microsome. For orientation: Microsomes from liver hold many membrane-bound enzymes, among them those of drug oxidation.
The test system of series [2] is Liver. Description: Unbound intrinsic clearance in mouse liver microsomes at 0.5 uM in presence of NADPH incubated for 5 to 30 mins by HPLC-MS/MS method. In kind it is ADME, microsome.
Series [3] addresses Nicotinamide phosphoribosyltransferase (Homo sapiens, UniProt P43490).
Description: Inhibition of C-terminal His-tagged human recombinant NAMPT using FK866 or isoindoline urea-based Oregon green (488) probe incubated for 3 hrs by TR-FRET assay
The nature of series [4]: Aqueous solubility of the compound. Conditions: buffer. In kind it is physicochemical.

Chain of Nicotinamide phosphoribosyltransferase (P43490 whole entry): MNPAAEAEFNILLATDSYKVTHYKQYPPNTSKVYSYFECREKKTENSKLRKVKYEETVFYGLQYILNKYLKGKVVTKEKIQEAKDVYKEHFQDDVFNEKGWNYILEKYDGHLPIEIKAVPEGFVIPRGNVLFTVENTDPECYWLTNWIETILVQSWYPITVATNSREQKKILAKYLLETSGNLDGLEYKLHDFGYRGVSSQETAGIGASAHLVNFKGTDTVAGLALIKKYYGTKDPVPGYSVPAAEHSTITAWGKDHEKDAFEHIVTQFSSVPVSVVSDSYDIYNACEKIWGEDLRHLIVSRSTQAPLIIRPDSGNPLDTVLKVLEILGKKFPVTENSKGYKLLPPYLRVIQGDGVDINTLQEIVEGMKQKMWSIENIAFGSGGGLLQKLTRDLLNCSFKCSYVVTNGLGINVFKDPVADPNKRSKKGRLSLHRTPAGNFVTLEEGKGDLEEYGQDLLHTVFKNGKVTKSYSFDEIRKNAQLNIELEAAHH

For the compound `O=C(Nc1ccc(S(=O)(=O)c2ccccc2)cc1)N1Cc2ccccc2C1`, the half-inhibitory concentration (IC50) in the series on PC-3 (Homo sapiens, PC-3, 120 h) was determined as 0.03 µM. Also, the CL free in the series on Liver [1] amounted to 73.3 mL/min/kg; in the series with Liver [2], 367 mL/min/kg. In addition, the affinity in series [3], expressed as Ki, was 0.021 µM.

`CN1CCN(C(C)(C)C(=O)N2CCC(c3ccc(NC(=O)N4Cc5ccccc5C4)cc3)CC2)CC1`: in the series on PC-3 (Homo sapiens, PC-3, 120 h), the IC50 turned out to be 0.0023 µM. For the same compound, the CL free with Liver [1] stood at 733 mL/min/kg; in the series on Liver [2], 1470 mL/min/kg. Besides, the inhibitory constant (Ki) in series [3] came to 0.0015 µM.

Regarding `O=C(NCCCc1ccccc1)c1ccc(NC(=O)N2Cc3ccccc3C2)cc1`, the half-maximal inhibitory concentration (IC50) in the series with PC-3 (Homo sapiens, PC-3, 120 h) stood at 0.021 µM. Moreover, in the series with Liver [1], the CL free is 17670 mL/min/kg. In addition, in series [4], the solubility was below 5 µM.

Consider `CC(C)(C)CCNC(=O)c1ccc(NC(=O)N2Cc3ccccc3C2)cc1`, for which the half-maximal inhibitory concentration (IC50) with PC-3 (pc-3) is 0.021 µM. The CL free is 217 mL/min/kg with Liver [1] and 145 mL/min/kg in the series with Liver [2]. In series [4], the solubility was below 5 µM.

In the case of `CC(C)CCNC(=O)c1ccc(NC(=O)N2Cc3ccc(F)cc3C2)cc1`, in the series on PC-3 (pc-3), the IC50 came to 0.0065 µM.

`COc1cc2c(cc1OC)CN(C(=O)Nc1ccc(C(=O)NCCC(C)C)cc1)C2`: the IC50 in the series with PC-3 (Homo sapiens, PC-3, 120 h) was above 10 µM. Besides, the Ki in series [3] is above 9 µM.

Turning to `CC(C)CCNC(=O)c1ccc(NC(=O)N2Cc3ccc(C#N)cc3C2)cc1`, the IC50 with PC-3 (Homo sapiens, PC-3, 120 h) was above 10 µM.

Consider `O=C(Nc1ccc(C2=CCN(C(=O)c3ccccc3)CC2)cc1)N1Cc2ccccc2C1`, for which, in the series with PC-3 (Homo sapiens, PC-3, 120 h), the IC50 amounted to 0.0081 µM. Besides, the CL free with Liver [1] came to 217 mL/min/kg.

Regarding `CC(C)CCNS(=O)(=O)c1ccc(NC(=O)N2Cc3ccccc3C2)cc1`, the half-maximal inhibitory concentration (IC50) with PC-3 (Homo sapiens, PC-3, 120 h) was above 10 µM. Moreover, the CL free is 433 mL/min/kg with Liver [1] and 4420 mL/min/kg in the series with Liver [2]. For the same compound, the solubility in series [4] was below 5 µM.

For the compound `CC(C)C(=O)N1CCC(c2ccc(NC(=O)N3Cc4ccccc4C3)cc2)CC1`, the half-maximal inhibitory concentration (IC50) with PC-3 (Homo sapiens, PC-3, 120 h) is 0.018 µM. Further, the CL free with Liver [1] is 58.3 mL/min/kg; in the series on Liver [2], 367 mL/min/kg.

On to `N#CN=C(NCCCCCCOc1ccc(Cl)cc1)Nc1ccncc1` [CHS-828], for which, in the series with PC-3 (Homo sapiens, PC-3, 120 h), the half-inhibitory concentration (IC50) was 0.0044 µM. Moreover, the CL free with Liver [1] is 567 mL/min/kg; with Liver [2], 1360 mL/min/kg. In addition, the solubility in series [4] is below 5 µM.

Regarding `CC(C)C[C@@H](CO)NC(=O)c1ccc(NC(=O)N2Cc3ccccc3C2)cc1`, in the series on PC-3 (Homo sapiens, PC-3, 120 h), the IC50 came to 0.066 µM. In addition, the CL free came to 56.7 mL/min/kg with Liver [1] and 115 mL/min/kg with Liver [2]. Besides, the solubility in series [4] was below 5 µM.

With `CCC(C)C(=O)N1CCC(Oc2ccc(NC(=O)N3Cc4ccccc4C3)cc2)CC1` (stereo not given), the IC50 in the series on PC-3 (Homo sapiens, PC-3, 120 h) was found to be 0.048 µM. Also, the values for the CL free in the series on Liver [1] and in the series on Liver [2] were 633 mL/min/kg and 2780 mL/min/kg, respectively.

With `CCCNC(=O)c1ccc(NC(=O)N2Cc3ccccc3C2)cc1`, the IC50 in the series on PC-3 (pc-3) came to 0.88 µM. Moreover, the CL free in the series with Liver [1] turned out to be 56.7 mL/min/kg; in the series with Liver [2], 71.7 mL/min/kg. Further, the solubility in series [4] was below 5 µM.

As for `CC(C)CCNC(=O)c1ccc(NC(=O)N2Cc3ccccc3C2)nc1`, the IC50 in the series on PC-3 (pc-3) was found to be 0.014 µM. Besides, the CL free came to 53.3 mL/min/kg in the series on Liver [1] and 283 mL/min/kg in the series on Liver [2].

As to `CC(C)CCNC(=O)c1cccc(NC(=O)N2Cc3ccccc3C2)c1`, the IC50 in the series with PC-3 (Homo sapiens, PC-3, 120 h) is above 12.5 µM. In series [3], this compound gave a Ki above 8.9 µM.

Turning to `O=C(NCC1CCOC1)c1ccc(NC(=O)N2Cc3ccccc3C2)cc1` (stereo not given), the half-inhibitory concentration (IC50) in the series on PC-3 (pc-3) was 0.068 µM. Also, the results for the CL free in the series on Liver [1] and with Liver [2] were 26.7 mL/min/kg and 83 mL/min/kg, respectively. For the same compound, in series [4], the solubility was below 5 µM.

As for `Cc1ccc2c(c1)CN(C(=O)Nc1ccc(C(=O)NCCC(C)C)cc1)C2`, the IC50 with PC-3 (Homo sapiens, PC-3, 120 h) was 0.01 µM.

In the case of `O=C(NCc1ccc(S(=O)(=O)c2ccccc2)cc1)N1Cc2ccccc2C1`, the IC50 in the series on PC-3 (Homo sapiens, PC-3, 120 h) is above 10 µM. Besides, the CL free in the series on Liver [1] was found to be 650 mL/min/kg; in the series on Liver [2], 3670 mL/min/kg.

In the case of `CC(C)CCNC(=O)c1ccc(NC(=O)N2Cc3ccc(CO)cc3C2)cc1`, in the series on PC-3 (Homo sapiens, PC-3, 120 h), the concentration for half-maximal inhibition (IC50) amounted to 0.0014 µM.

As for `CC1(C(=O)N2CCC(c3ccc(NC(=O)N4Cc5ccccc5C4)cc3)CC2)CC1`, the half-inhibitory concentration (IC50) in the series with PC-3 (Homo sapiens, PC-3, 120 h) was determined as 0.0066 µM. For the same compound, the CL free with Liver [1] is 56.7 mL/min/kg; with Liver [2] it was 283 mL/min/kg. In series [3], this compound yielded a Ki of 0.0043 µM.

As for `O=C(Nc1ccc(C2CCN(C(=O)[C@@H]3CCCO3)CC2)cc1)N1Cc2ccc(Cl)cc2C1`, the IC50 in the series on PC-3 (Homo sapiens, PC-3, 120 h) came to 0.0079 µM. Moreover, the CL free in the series with Liver [1] was 217 mL/min/kg; in the series on Liver [2], 583 mL/min/kg. Moreover, affinity in series [3] was put at a Ki of 0.0017 µM.

As to `CC1(C(=O)N2CCC(c3ccc(NC(=O)N4Cc5ccccc5C4)cc3)CC2)COC1`, the IC50 with PC-3 (Homo sapiens, PC-3, 120 h) was found to be 0.015 µM. Also, the CL free in the series with Liver [1] is 50 mL/min/kg; in the series on Liver [2], 145 mL/min/kg. In series [3], the Ki was 0.0051 µM.

As to `CC(C)CCNC(=O)c1ccc(NC(=O)N2Cc3ccccc3C2)cn1`, in the series on PC-3 (pc-3), the IC50 came to 0.73 µM. Besides, the CL free with Liver [1] was 217 mL/min/kg; with Liver [2], 1250 mL/min/kg.

Regarding `O=C(Nc1ccc(N2CCN(C(=O)c3ccccc3)CC2)cc1)N1Cc2ccccc2C1`, the IC50 with PC-3 (Homo sapiens, PC-3, 120 h) amounted to 0.084 µM. Also, in the series on Liver [1], the CL free came out at 130 mL/min/kg.

As to `CC(C)CCNC(=O)c1ccc(NC(=O)N2Cc3ccccc3C2)cc1`, in the series on PC-3 (pc-3), the half-maximal inhibitory concentration (IC50) came to 0.038 µM. Further, the CL free was 250 mL/min/kg with Liver [1] and 817 mL/min/kg in the series with Liver [2]. The same compound yielded a solubility in series [4] below 5 µM.

Turning to `CC(C)CCNC(=O)c1ccc(NC(=O)N2Cc3ccc(C(F)(F)F)cc3C2)cc1`, the half-inhibitory concentration (IC50) in the series on PC-3 (pc-3) was above 10 µM.

In the case of `O=C(NCc1ccccc1)c1ccc(NC(=O)N2Cc3ccccc3C2)cc1`, the IC50 in the series with PC-3 (Homo sapiens, PC-3, 120 h) was determined as 0.068 µM. Besides, the CL free in the series with Liver [1] was 58.3 mL/min/kg; in the series on Liver [2], 350 mL/min/kg. The compound also returned a solubility in series [4] below 5 µM.

As to `NC(=O)c1ccc(NC(=O)N2Cc3ccccc3C2)cc1`, the concentration for half-maximal inhibition (IC50) with PC-3 (pc-3) worked out at 8 µM. For the same compound, the figures for the CL free in the series with Liver [1] and in the series on Liver [2] were 20 mL/min/kg and 148 mL/min/kg, respectively. Besides, in series [4], the solubility is below 5 µM.

Regarding `O=C(NCC1CCCOC1)c1ccc(NC(=O)N2Cc3ccccc3C2)cc1` (stereo not given), the IC50 with PC-3 (Homo sapiens, PC-3, 120 h) came to 0.017 µM. Further, the values for the CL free in the series on Liver [1] and in the series with Liver [2] were 30 mL/min/kg and 75 mL/min/kg, respectively. Further, the solubility in series [4] is below 5 µM.

As to `O=C(/C=C/c1cccnc1)NCCCCC1CCN(C(=O)c2ccccc2)CC1` [DAPORINAD], the 50% inhibitory concentration (IC50) with PC-3 (Homo sapiens, PC-3, 120 h) amounted to 0.0057 µM. For the same compound, the figures for the CL free in the series on Liver [1] and with Liver [2] were 91.7 mL/min/kg and 258 mL/min/kg, respectively. In series [4], this compound returned a solubility below 5 µM.

For `CC(C)CCn1cc(-c2ccc(NC(=O)N3Cc4ccccc4C3)cc2)cn1`, the half-inhibitory concentration (IC50) with PC-3 (Homo sapiens, PC-3, 120 h) turned out to be 0.032 µM. Further, the solubility in series [4] is below 5 µM.

Regarding `O=C(NCCCCC1CCN(C(=O)c2ccccc2)CC1)N1Cc2ccccc2C1`, the IC50 in the series on PC-3 (Homo sapiens, PC-3, 120 h) was determined as 0.0084 µM. Moreover, the results for the CL free in the series on Liver [1] and in the series on Liver [2] were 317 mL/min/kg and 4670 mL/min/kg, respectively.

Turning to `CC(C)CCNC(=O)c1ccc(NC(=O)N2Cc3ccncc3C2)cc1`, in the series with PC-3 (pc-3), the IC50 turned out to be 0.0084 µM.

Take `O=C(Nc1ccc(C2CCN(C(=O)c3ccccc3)CC2)cc1)N1Cc2ccccc2C1`: the IC50 with PC-3 (Homo sapiens, PC-3, 120 h) turned out to be 0.0028 µM. Further, the CL free worked out at 183 mL/min/kg in the series on Liver [1] and 983 mL/min/kg in the series with Liver [2].

Regarding `COc1ccc2c(c1)CN(C(=O)Nc1ccc(C(=O)NCCC(C)C)cc1)C2`, in the series on PC-3 (pc-3), the half-inhibitory concentration (IC50) was above 10 µM.

Regarding `O=C(Nc1ccc(C(=O)N2CCN(c3ccccn3)CC2)cc1)N1Cc2ccccc2C1`, the IC50 in the series with PC-3 (Homo sapiens, PC-3, 120 h) is 0.019 µM. The CL free in the series on Liver [1] came to 63.3 mL/min/kg; in the series with Liver [2], 183 mL/min/kg. The compound also showed a solubility in series [4] below 5 µM.

Regarding `CC(C)CCNC(=O)c1ccc(NC(=O)N2Cc3cccc(Cl)c3C2)cc1`, the IC50 in the series with PC-3 (pc-3) turned out to be 0.64 µM.
